From patent publication US8906952B2, “Indole derivative or pharmaceutically acceptable salt thereof, preparation method thereof, and pharmaceutical composition for preventing or treating metabolic diseases containing same as active ingredient” (Korea Research Institute of Bioscience and Biotechnology, priority 2011, dated 2014)

How the values were obtained:
HuTu80 cells = experiment: DGAT activity inhibitory effect in HuTu80 cells (triglyceride production from [14C]oleate); type: cell-based, human; settings: for activity at 10 µM / inhibition at 10 µM / activity at 0.3 µM / activity at 1 µM / activity at 3 µM: Homo sapiens, HuTu80; for activity at 10 µM / activity at 0.3 µM / activity at 1 µM / activity at 3 µM: read-out: Triglyceride Production Rate (% of control)/HuTu80cells; for inhibition at 10 µM / inhibition of biosynthesis of triglycerides (in words): Hutu 80 cells; for inhibition at 10 µM: read-out: inhibitory activity on intracellular biosynthesis of triglycerides
Method: HuTu80 cells were seeded in 24-well culture plate by 2×10^5 cells/well. After 24 hr, the medium was exchanged with FBS-free DMEM and concurrently treated with sample and substrate. For the substrate, 0.5 μCi [^14C]oleate was respectively added and allowed to react for 2 hr. After the reaction, the substrate that was either not absorbed into cells or not used for the reaction were washed with PBS two times, and total fat containing triglyceride was extracted by adding 1 ml extraction solvent (n-hexane/2-propanol=3/2, v/v). The extract was concentrated with nitrogen gas. The total fat after elimination of extraction solvent was dissolved in organic solvent (chloroform/methanol=2/1, v/v), spotted on thin layer chromatography (TLC: silica gel 60F254, 0.5 mm, Merck), and developed on developing solvent (n-hexane/diethyl ether/acetic acid=80/20/1, v/v/v). After isolating triglyceride (R∫ value: 0.4) from TLC, exposing to the film with photosensitivity to energy of radioactive elements (imaging plate's Fujifilm, BAS-MS 2040) for 3 hr, and the radioactive dose of triglyceride was measured by conducting image analysis (FLA 7000).
The remaining cells after the extraction were dissolved in 0.3 ml 0.1N NaOH to measure the protein concentration of the cells used for the reaction. The protein quantification was performed with Lowry method-based, protein quantification kit (Bio-Rad). After seeding protein on 96-well, round bottom culture plate, 25 μl of solution containing 1 ml protein analysis reagent (bio-rad, alkaline copper tartrate solution) and 20 μl protein reagent S (bio-rad, surfactant solution) was seeded per well, to induce reaction between copper ion and protein. After reaction with copper ion, 200 μl reagent B (bio-rad, folin reagent) was seeded per well to allow reduction reaction of the folin reagent to occur. For the amount of protein, the light absorptivity at 750 nm was measured based on the blue coloring of the folin reagent as the reduction occurred, and the concentrations of the protein corresponding to respective light absorptivities were quantified by obtaining standard curves with the standard material as bovine serum albumin (BSA). Using the experiment value, which is obtained by dividing the measured radiation dose of the triglyceride by the protein concentration, the above process was repeated three or more times, and the mean value with ±standard error was obtained, as tabulated below.

C57BL/6J mice = experiment: Oral lipid tolerance test (OLTT), corn oil load; type: in vivo; settings: for increase of triglyceride concentration: 30 mg/kg; for effect on blood triglyceride concentration (in words): administered to mice
Method: For experiment, 8-week-old male C57BL/6J mice were purchased from Biolink, adapted to environment in bio clean room (Temp. 22±3° C., Humidity 50±10%, Lighting 12 hr interval) for 1 week, and one day before the experiment, fasted for 16 hr. The mice were allowed to freely eat radiation-sterilized solid rodent feed (Harlan, Ind., USA), except for the 16 hr fasting period before the administration of test sample, and were also allowed to freely have a sufficient amount of drinking water which was sterilized in autoclave throughout the test period.
Seven C57BL/6J mice were allocated for solvent control group (V.C., Vehicle Control), and another seven for experimental group (sample group), after which sample was administered as follows.
The normal control group was administered with administration medium (0.5% CMC; carboxy methyl cellulose) only, while the experimental group was orally administered with the compounds of Examples 27 and 49 by 10, 30 mg/kg concentrations, respectively. Before administering the samples to all the animals of the experimental group, the animals were fasted for 16 hr, after which the corresponding sample was orally administered one time, using sonde for oral administration. After 60 min, 6 ml/kg liquid measure of corn oil was orally administered. Blood samples were taken immediately before administration of the corn oil (at 0 hr), and after the corn coil administration, the blood samples were taken directly using heparin-treated capillary tube from retro-orbital sinus at predetermined time (at 2 hr and at 4 hr). The blood samples were centrifuged at 3,000 rpm for 10 min to separate plasma, and the concentration of triglyceride was directly analyzed with automated hematology chemistry analyzer (Hitachi 7150, Japan).

ICR mice = experiment: Acute toxicity assay; type: in vivo; settings: oral 100, 250 mg/kg; observation over two weeks
Method: In order to investigate acute toxicity of the indole derivatives according to the present invention, mice (20±5 g, Central Lab. Animal Inc.) and rats (235±10 g, Central Lab. Animal Inc.) were used for the acute toxicity assay of compound 1.
A total of […] of 10 ICR mice were orally administered with compound 1 according to the present invention by the dose of 100, 250 mg/kg, respectively.

[1] = 10 mg/kg oral, 0 hr (immediately before corn oil)
[2] = 10 mg/kg oral, 2 hr after corn oil
[3] = 10 mg/kg oral, 4 hr after corn oil
[4] = 30 mg/kg oral, 0 hr (immediately before corn oil)
[5] = 30 mg/kg oral, 2 hr after corn oil
[6] = 30 mg/kg oral, 4 hr after corn oil
[7] = after 2 hr of corn oil administration
[8] = after 4 hr of corn oil administration

| Compound | activity at 10 µM (HuTu80 cells) [%] | inhibition at 10 µM (HuTu80 cells) [%] | Serum TG (C57BL/6J mice; [1]) [mg/dL] | Serum TG (C57BL/6J mice; [2]) [mg/dL] | Serum TG (C57BL/6J mice; [3]) [mg/dL] | Serum TG (C57BL/6J mice; [4]) [mg/dL] | Serum TG (C57BL/6J mice; [5]) [mg/dL] | Serum TG (C57BL/6J mice; [6]) [mg/dL] | increase of triglyceride concentration (C57BL/6J mice; [7]) | increase of triglyceride concentration (C57BL/6J mice; [8]) | effect on blood triglyceride concentration (in words) (C57BL/6J mice) | activity at 0.3 µM (HuTu80 cells) [%] | activity at 1 µM (HuTu80 cells) [%] | activity at 3 µM (HuTu80 cells) [%] | inhibition of biosynthesis of triglycerides (in words) (HuTu80 cells) | death (ICR mice) | difference on the outside (ICR mice) |
| --- | --- | --- | --- | --- | --- | --- | --- | --- | --- | --- | --- | --- | --- | --- | --- | --- | --- |
| CC(C)=CCn1cc(/C=C/C(=O)N(NC(=O)c2ccccc2)C(C)C)c2ccccc21 [Example 27, (E)-N′-isopropyl-N′-(3-(1-(3-methylbut-2-enyl)-1H-indol-3-yl)acryloyl)benzohydrazide] | 13.1 ± 0.9 | 70 to 80 | 62.8 ± 20.6 | 171.0 ± 61.7 | 83.0 ± 22.8 | 45.4 ± 7.2 | 104.2 ± 40.3 | 79.8 ± 37.3 | approximately 1.9 fold | approximately 1.1 fold | superior effect of decreasing blood triglyceride concentration |  |  |  |  |  |  |
| Cc1ccc(C(=O)NN(C(=O)/C=C/c2cn(C(=O)OC(C)(C)C)c3ccccc23)C(C)C)cc1 [Example 48, (E)-tert-butyl 3-(3-(1-isopropyl-2-(4-methylbenzoyl)hydrazinyl)-3-oxoprop-1-enyl)-1H-indole-1-carboxylate] | 23.9 ± 0.8 |  |  |  |  |  |  |  |  |  |  |  |  |  |  |  |  |
| Cc1cccc(C(=O)NN(C(=O)/C=C/c2cn(C(=O)OC(C)(C)C)c3ccccc23)C(C)C)c1 [Example 47, (E)-tert-butyl 3-(3-(1-isopropyl-2-(3-methylbenzoyl)hydrazinyl)-3-oxoprop-1-enyl)-1H-indole-1-carboxylate] | 13.7 ± 1.5 | 70 to 80 |  |  |  |  |  |  |  |  |  | 56.1 ± 0.1 | 30.2 ± 1.2 | 19 ± 5 | inhibited biosynthesis of triglycerides in a concentration-dependent manner |  |  |
| CC(C)=CCn1cc(/C=C/C(=O)N(NC(=O)c2ccc(F)cc2)C(C)C)c2ccccc21 [Example 49, (E)-4-fluoro-N′-isopropyl-N′-(3-(1-(3-methylbut-2-enyl)-1H-indol-3-yl)acryloyl)benzohydrazide] | 13.1 ± 0.9 | 70 to 80 | 78.8 ± 23.2 | 90.8 ± 28.2 | 43.2 ± 12.9 | 45.8 ± 6.1 | 86.4 ± 11.1 | 50.0 ± 11.9 | ~2.3 fold | ~1.8 fold | superior effect of decreasing blood triglyceride concentration | 66.9 ± 3 | 33.4 ± 4.4 | 21.4 ± 0.3 | inhibited biosynthesis of triglycerides in a concentration-dependent manner |  |  |
| CC(C)N(NC(=O)c1ccccc1)C(=O)/C=C/c1cn(C(=O)OC(C)(C)C)c2ccccc12 [Example 1, (E)-tert-butyl 3-(3-(2-benzoyl-1-isopropylhydrazinyl)-3-oxoprop-1-enyl)-1H-indole-1-carboxylate] |  |  |  |  |  |  |  |  |  |  |  |  |  |  |  | no death | nor did the groups show any specific difference on the outside |
| CC(C)CCn1cc(/C=C/C(=O)N(NC(=O)c2ccc(F)cc2)C(C)C)c2ccccc21 [Example 46, (E)-4-fluoro-N′-(3-(1-isopentyl-1H-indol-3-yl)acryloyl)-N′-isopropylbenzohydrazide] | 20 ± 1.8 | 70 to 80 |  |  |  |  |  |  |  |  |  | 30 ± 0.3 | 30 ± 1.3 | 20 ± 1.2 | inhibited biosynthesis of triglycerides in a concentration-dependent manner |  |  |
| CC(C)N(NC(=O)c1ccc(F)cc1)C(=O)/C=C/c1cn(C(=O)OC(C)(C)C)c2ccccc12 [Example 44, (E)-tert-butyl 3-(3-(2-(4-fluorobenzoyl)-1-isopropylhydrazinyl)-3-oxoprop-1-enyl)-1H-indole-1-carboxylate] | 20 ± 1.2 | 70 to 80 |  |  |  |  |  |  |  |  |  | 63.9 ± 4.3 | 43.7 ± 0.3 | 29 ± 0.9 | inhibited biosynthesis of triglycerides in a concentration-dependent manner |  |  |
